# Results: publication PMC6268022, “Substituted N-Benzylpyrazine-2-carboxamides: Synthesis and Biological Evaluation ^†” (Molecules, 2012)
# “And” between values parts separate entries of the source, which are not always exact repeats. Equal values may be shown once. Read-outs that look alike come from different tables or passages of the source.
# What was measured:
# [1] = tested on: photosynthetic electron transport (PET) in spinach chloroplasts; test: Inhibition of photosynthetic electron transport (oxygen evolution rate) in spinach chloroplasts; type: biochemical, Spinacia oleracea L.; conditions: DCPIP photoreduction, pH 7.2
# Procedure: All studied compounds were evaluated for their photosynthetic electron transport (PET) inhibition in spinach chloroplasts, which was reflected in the inhibition of oxygen evolution rate. The photosynthesis-inhibiting activity of the compounds has been expressed as IC50 values. Compounds 4, 5, 7 and 8 were not tested due to their low solubility in tested medium.
# Chloroplasts were prepared from spinach (Spinacia oleracea L.) according to Masarovičová and Kráľová [31]. The inhibition of photosynthetic electron transport (PET) in spinach chloroplasts was determined spectrophotometrically (Genesys 6, Thermo Scientific, Madison, WI, USA) using an artificial electron acceptor 2,6-dichlorophenol-indophenol (DCPIP) according to Kráľová et al. and the rate of photosynthetic electron transport (PET) was monitored as a photo-reduction of DCPIP. The measurements were carried out in a phosphate buffer (0.02 mol/L, pH 7.2) containing sucrose (0.4 mol/L), MgCl2 (0.005 mol/L) and NaCl (0.015 mol/L). The chlorophyll content was 30 mg/L in these experiments and the samples were irradiated (~100 W/m^2) from a 10 cm distance with halogen lamp (250 W) using a 4 cm water filter to prevent warming of the samples (suspension temperature 22 °C). The studied compounds were dissolved in DMSO due to their limited water solubility. […] The inhibitory efficiency of the studied compounds was expressed as the IC50 values, i.e., molar concentration of the compounds causing 50% decrease in the oxygen evolution relative to the untreated control.
# [2] = tested on: M. tuberculosis H37Rv CNCTC My 331/88; test: In vitro antimycobacterial microdilution panel method; type: cell-based; conditions: Mycobacterium tuberculosis, 336 h
# [3] = tested on: M. avium CNCTC My 80/72; test: as above; type: cell-based; conditions: Mycobacterium avium, 336 h; CNCTC My 80/72, pH 6.0, 14 days
# [4] = tested on: M. avium CNCTC My 152/73; test: as above; type: cell-based; conditions: Mycobacterium avium, 336 h; CNCTC My 152/73, pH 6.0, 14 days
# [5] = tested on: M. kansasii CNCTC My 235/80; test: as above; type: cell-based; conditions: Mycobacterium kansasii, 144 h; CNCTC My 235/80, pH 6.0, 6 days
# [6] = tested on: Trichophyton mentagrophytes 445; test: In vitro antifungal microdilution broth method; type: cell-based; conditions: RPMI 1640 pH 7.0, 35 °C; for MIC: read-out: TM MIC
# Procedure: The Department of Medical and Biological Sciences at the Faculty of Pharmacy in Hradec Králové, Charles University in Prague, Czech Republic, performed the antifungal susceptibility assays, which was carried out using microdilution broth method. Compounds were dissolved in DMSO and diluted in a twofold manner with RPMI 1640 medium with glutamine buffered to pH 7.0 (3-morpholinopropane-1-sulfonic acid). […] Drug-free controls were included. […] The MICs were determined after 24 and 48 h, respectively after 72 and 120 h for Trichophyton mentagrophytes (TM), of static incubation in dark at 35 °C. Tested species: […]
# [7] = HPLC lipophilicity determination (capacity factor k / log k); conditions: RP-HPLC, C18, MeOH 70%/H2O 30%, 30 °C
# Procedure: The separation process was controlled by Agilent ChemStation, version B.04.02 extended by spectral module (Agilent Technologies Inc.). A solution of MeOH (HPLC grade, 70%) with H2O (HPLC-Milli-Q Grade, 30%) was used as mobile phase. The total flow of the column was 1.0 mL/min, injection 20 µL, column temperature 30 °C. 210 nm as detection wavelength and 270 nm as monitor wavelength were chosen. The KI methanol solution was used for the dead time (TD) determination. Retention times (TR) of synthesized compounds were measured in minutes. The capacity factors k were calculated using Microsoft Excel according to formula k = (TR − TD)/TD, where TR is the retention time of the solute and TD denotes the dead time obtained via an unretained analyte. Log k, calculated from the capacity factor k, is used as the lipophilicity index converted to log P scale.
# [8] = tested on: aromatic amino acids in the proteins of spinach chloroplasts situated in PS 2; test: Fluorescence of aromatic amino acids in spinach chloroplasts; type: biochemical, Spinacia oleracea L.; conditions: λex = 275 nm, 0-0.11 mmol/L
# From the text: Figure 4 presents fluorescence emission spectra of aromatic amino acids of untreated spinach chloroplasts and of chloroplasts treated with increasing concentrations of compound 6 (see Figure 4A) as well as dependence of fluorescence intensity of chlorophyll a on concentration of compounds 2 (squares), 11 (triangles) and 6 (circles) (see Figure 4B). Binding of these compounds to aromatic amino acids occurring in photosynthetic proteins contribute to PET inhibition. The fluorescence emission spectra of chlorophyll a (Chla) and aromatic amino acids in spinach chloroplasts were recorded on fluorescence spectrophotometer F-2000 (Hitachi, Tokyo, Japan) using excitation wavelength λex = 436 nm for monitoring fluorescence of Chla and λex = 275 nm for monitoring fluorescence of aromatic amino acids, excitation slit 20 nm and emission slit 10 nm. The samples were kept in the dark 2 min before measuring. The phosphate buffer used for dilution of the chloroplast suspension was the same as described above. Due to low aqueous solubility the compounds were added to a chloroplast suspension in DMSO solution. The DMSO concentration in all samples was the same as in the control (10%). The chlorophyll concentration in chloroplast suspension was 10 mg/L.
# [9] = tested on: photosynthetic electron transport (PET) in spinach chloroplasts; set-up: method as in earlier work; conditions: standard, read-out: IC50 (PET inhibition); cited from earlier work
# [10] = tested on: pigment-protein complexes in photosystem 2; test: Fluorescence of chlorophyll a in spinach chloroplasts; type: biochemical, Spinacia oleracea L.; conditions: λex = 436 nm, 0-0.42 mmol/L
# From the text: The effects of the studied compounds on the photosynthetic apparatus of spinach chloroplasts were investigated by studying chlorophyll a (Chla) fluorescence. […] The extent of perturbation of chlorophyll a-protein complexes in the thylakoid membrane was reflected as decreased fluorescence of the pigment (see Figure 3B). Similar decrease of Chla fluorescence in plant chloroplasts was also observed previously after treatment with substituted benzanilides and salicyanilides. The fluorescence emission spectra of chlorophyll a (Chla) and aromatic amino acids in spinach chloroplasts were recorded on fluorescence spectrophotometer F-2000 (Hitachi, Tokyo, Japan) using excitation wavelength λex = 436 nm for monitoring fluorescence of Chla and λex = 275 nm for monitoring fluorescence of aromatic amino acids, excitation slit 20 nm and emission slit 10 nm. The samples were kept in the dark 2 min before measuring. The phosphate buffer used for dilution of the chloroplast suspension was the same as described above. Due to low aqueous solubility the compounds were added to a chloroplast suspension in DMSO solution. The DMSO concentration in all samples was the same as in the control (10%). The chlorophyll concentration in chloroplast suspension was 10 mg/L.
# [11] = MIC with respect to molecular weight, Šula's medium pH 6.0, 14 days, read-out: MIC M. tuberculosis H37Rv (value in parentheses)
# [12] = Šula's medium pH 6.0, 37 °C, 14 days, read-out: MIC M. tuberculosis H37Rv
# [13] = Trichophyton mentagrophytes, 445, 72 h, pH 7, evaluated after 72 h
# [14] = Trichophyton mentagrophytes, 445, 120 h, pH 7, evaluated after 120 h
smiles,measurement,setting,value
"CC(C)(C)c1ncc(C(=O)NCc2cccc(C(F)(F)F)c2)nc1Cl [Compound 10, 5-tert-Butyl-6-chloro-N-(3-trifluoromethylbenzyl)pyrazine-2-carboxamide]",IC50,[1],36.3 µM
same,MIC,[2]; [11],16 µM
same,MIC,[2]; [12],6.25 µg/mL
same,MIC,[3],25 µg/mL
same,MIC,[4],25 µg/mL
same,MIC,[5],25 µg/mL
same,MIC,[6]; [13],250 µM
same,MIC,[6]; [14],250 µM
same,log k,[7],1.3638
"OC(Cn1cncn1)(Cn1cncn1)c1ccc(F)cc1F [FLU, fluconazole, reference compound]",MIC,[6]; [13],1.95 µM
same,MIC,[6]; [14],3.91 µM
"O=C(NCc1ccccc1)c1cnc(Cl)cn1 [Compound 1, N-Benzyl-5-chloropyrazine-2-carboxamide]",IC50,[1],1620 µM
same,MIC,[2]; [11],100 µM
same,MIC,[2]; [12],25 µg/mL
same,MIC,[3],100 µg/mL
same,MIC,[4],100 µg/mL
same,MIC,[5],100 µg/mL
same,MIC,[6]; [13],125 µM
same,MIC,[6]; [14],125 µM
same,log k,[7],0.1862
"O=C(NCc1ccc(Cl)cc1)c1cncc(Cl)n1 [Compound 7, 6-Chloro-N-(4-chlorobenzyl)pyrazine-2-carboxamide]",MIC,[2]; [11],44 µM
same,MIC,[2]; [12],12.5 µg/mL
same,MIC,[3],100 µg/mL
same,MIC,[4],12.5 µg/mL
same,MIC,[5],100 µg/mL
same,MIC,[6]; [13],125 µM
same,MIC,[6]; [14],125 µM
same,log k,[7],0.4335
"CC(C)(C)c1ncc(C(=O)NCc2ccccc2)nc1Cl [Compound 9, N-Benzyl-5-tert-butyl-6-chloropyrazine-2-carboxamide]",IC50,[1],7.4 µM
same,MIC,[2]; [11],82 µM
same,MIC,[2]; [12],25 µg/mL
same,MIC,[3],25 µg/mL
same,MIC,[4],50 µg/mL
same,MIC,[5],100 µg/mL
same,MIC,[6]; [13],250 µM
same,MIC,[6]; [14],500 µM
same,log k,[7],1.1215
"O=C(NCc1ccc(Cl)cc1)c1cnc(Cl)cn1 [Compound 3, 5-Chloro-N-(4-chlorobenzyl)pyrazine-2-carboxamide]",IC50,[1],604 µM
same,MIC,[2]; [11],44 µM
same,MIC,[2]; [12],12.5 µg/mL
same,MIC,[3],100 µg/mL
same,MIC,[4],100 µg/mL
same,MIC,[5],100 µg/mL
same,MIC,[6]; [13],125 µM
same,MIC,[6]; [14],125 µM
same,log k,[7],0.4150
"O=C(NCc1ccccc1)c1cncc(Cl)n1 [Compound 5, N-Benzyl-6-chloropyrazine-2-carboxamide]",MIC,[2]; [11],50 µM
same,MIC,[2]; [12],12.5 µg/mL
same,MIC,[3],100 µg/mL
same,MIC,[4],100 µg/mL
same,MIC,[5],50 µg/mL
same,MIC,[6]; [13],250 µM
same,MIC,[6]; [14],500 µM
same,log k,[7],0.2002
"NNC(=O)c1ccncc1 [INH, isoniazid, reference compound]",MIC,[2]; [11],11 µM
same,MIC,[2]; [12],1.56 µg/mL
same,MIC,[3],12.5 to 25 µg/mL
same,MIC,[4],12.5 µg/mL
same,MIC,[5],12.5 µg/mL
"CC(C)(C)c1ncc(C(=O)NCc2ccc(Cl)cc2)nc1Cl [Compound 11, 5-tert-Butyl-6-chloro-N-(4-chlorobenzyl)pyrazine-2-carboxamide]",IC50,[1],13.4 µM
same,MIC,[2]; [11],36 µM
same,MIC,[2]; [12],12.5 µg/mL
same,MIC,[3],50 µg/mL
same,MIC,[4],50 µg/mL
same,MIC,[5],50 µg/mL
same,MIC,[6]; [13],250 µM
same,MIC,[6]; [14],500 µM
same,log k,[7],1.3511
"COc1ccc(CNC(=O)c2cncc(Cl)n2)cc1 [Compound 8, 6-Chloro-N-(4-methoxybenzyl)pyrazine-2-carboxamide]",MIC,[2]; [11],22 µM
same,MIC,[2]; [12],6.25 µg/mL
same,MIC,[3],100 µg/mL
same,MIC,[4],50 µg/mL
same,MIC,[5],100 µg/mL
same,MIC,[6]; [13],500 µM
same,MIC,[6]; [14],500 µM
same,log k,[7],0.1838
"O=C(NCc1cccc(C(F)(F)F)c1)c1cncc(Cl)n1 [Compound 6, 6-Chloro-N-(3-trifluoromethylbenzyl)pyrazine-2-carboxamide]",IC50,[1],1210 µM
same,MIC,[2]; [11],39 µM
same,MIC,[2]; [12],12.5 µg/mL
same,MIC,[3],25 µg/mL
same,MIC,[4],100 µg/mL
same,MIC,[5],100 µg/mL
same,MIC,[6]; [13],62.5 µM
same,MIC,[6]; [14],125 µM
same,fluorescence of aromatic amino acids,[8],quenching of their fluorescence at 334 nm
same,log k,[7],0.4507
"CN(C)C(=O)Nc1ccc(Cl)c(Cl)c1 [DCMU, 3-(3,4-dichlorophenyl)-1,1-dimethylurea]",IC50,[9],~1.9 µM and 1.9 µM
"NC(=O)c1cnccn1 [PZA, pyrazinamide, reference compound]",MIC,[2]; [11],50 to 101 µM
same,MIC,[2]; [12],6.25 to 12.5 µg/mL
same,MIC,[3],> 100 µg/mL
same,MIC,[4],> 100 µg/mL
same,MIC,[5],> 100 µg/mL
"COc1ccc(CNC(=O)c2cnc(Cl)cn2)cc1 [Compound 4, 5-Chloro-N-(4-methoxybenzyl)pyrazine-2-carboxamide]",MIC,[2]; [11],90 µM
same,MIC,[2]; [12],25 µg/mL
same,MIC,[3],100 µg/mL
same,MIC,[4],50 µg/mL
same,MIC,[5],100 µg/mL
same,MIC,[6]; [13],250 µM
same,MIC,[6]; [14],250 µM
same,log k,[7],0.1655
"COc1ccc(CNC(=O)c2cnc(C(C)(C)C)c(Cl)n2)cc1 [Compound 12, 5-tert-Butyl-6-chloro-N-(4-methoxybenzyl)pyrazine-2-carboxamide]",IC50,[1],122 µM
same,MIC,[2]; [11],18 µM
same,MIC,[2]; [12],6.25 µg/mL
same,MIC,[3],12.5 µg/mL
same,MIC,[4],6.25 µg/mL
same,MIC,[5],3.12 µg/mL
same,MIC,[6]; [13],250 µM
same,MIC,[6]; [14],500 µM
same,log k,[7],0.8071
"O=C(NCc1cccc(C(F)(F)F)c1)c1cnc(Cl)cn1 [Compound 2, 5-Chloro-N-(3-trifluoromethylbenzyl)pyrazine-2-carboxamide]",IC50,[1],346 µM
same,MIC,[2]; [11],79 µM
same,MIC,[2]; [12],25 µg/mL
same,MIC,[3],25 µg/mL
same,MIC,[4],100 µg/mL
same,MIC,[5],50 µg/mL
same,MIC,[6]; [13],15.6 µM
same,MIC,[6]; [14],15.6 µM
same,TM MIC,[6]; evaluated after 72 h,15.62/15.62 µmol/L
same,chlorophyll a fluorescence emission,[10],decreased intensity of the emission band at 686 nm
same,log k,[7],0.4384
